In the NIST ThermoML archive (doi:10.1016/j.jct.2018.08.015):

Conditions: Liquid; for mass density: 298.15 K, 101.33 kPa, Vibrating tube method; for vapor or sublimation pressure: Ebulliometric method (Recirculating still)

Cc1ccc(C(C)C)cc1 [1-(1-methylethyl)-4-methylbenzene]
Conditions | mass density [kg/m3] | vapor or sublimation pressure [kPa]
– | 853.2 | –
450.28 K | – | 101.33

CC1=CCC2C(C1)C2(C)C (centres undefined) [3,7,7-trimethylbicyclo[4.1.0]hept-3-ene]
Conditions | mass density [kg/m3] | vapor or sublimation pressure [kPa]
– | 863.8 | –
356.07 K | – | 5.32
378.03 K | – | 14.5
388.7 K | – | 20.46
391.9 K | – | 22.59
396.66 K | – | 26.61
405.49 K | – | 34.54
412.42 K | – | 42.81
416.18 K | – | 47.76
424.04 K | – | 59.53
426.24 K | – | 63.19
430.64 K | – | 70.97
433.68 K | – | 76.91
436.32 K | – | 82.05
439.47 K | – | 89.96
442.61 K | – | 96.43
444.44 K | – | 101.33

C=C1CC/C=C(\C)CC[C@@H]2[C@@H]1CC2(C)C
Conditions | mass density [kg/m3] | vapor or sublimation pressure [kPa]
– | 896.8 | –
370.33 K | – | 0.51
380.5 K | – | 0.84
395.45 K | – | 1.63
420.02 K | – | 4.31
435.58 K | – | 7.51
454.18 K | – | 13.85
464.9 K | – | 19.18
474.02 K | – | 24.96
480.05 K | – | 29.55
491.45 K | – | 40.33
502.53 K | – | 53.62
512.49 K | – | 68.83
522.97 K | – | 88.4
528.78 K | – | 101.33
